Source: patent US8119647B2, “Fused pyrimidineone compounds as TRPV3 modulators” (Glenmark Pharmaceuticals S.A., priority 2008, dated 2012)
Read-outs that look alike come from different tables or passages of the source.

Target: T1, Human TRPV3 (Homo sapiens, UniProt Q8NET8)
T1 construct: expressed in transfected cells; host or cells: CHO cells (G-418 selection)
T1 sequence (Q8NET8 1-790): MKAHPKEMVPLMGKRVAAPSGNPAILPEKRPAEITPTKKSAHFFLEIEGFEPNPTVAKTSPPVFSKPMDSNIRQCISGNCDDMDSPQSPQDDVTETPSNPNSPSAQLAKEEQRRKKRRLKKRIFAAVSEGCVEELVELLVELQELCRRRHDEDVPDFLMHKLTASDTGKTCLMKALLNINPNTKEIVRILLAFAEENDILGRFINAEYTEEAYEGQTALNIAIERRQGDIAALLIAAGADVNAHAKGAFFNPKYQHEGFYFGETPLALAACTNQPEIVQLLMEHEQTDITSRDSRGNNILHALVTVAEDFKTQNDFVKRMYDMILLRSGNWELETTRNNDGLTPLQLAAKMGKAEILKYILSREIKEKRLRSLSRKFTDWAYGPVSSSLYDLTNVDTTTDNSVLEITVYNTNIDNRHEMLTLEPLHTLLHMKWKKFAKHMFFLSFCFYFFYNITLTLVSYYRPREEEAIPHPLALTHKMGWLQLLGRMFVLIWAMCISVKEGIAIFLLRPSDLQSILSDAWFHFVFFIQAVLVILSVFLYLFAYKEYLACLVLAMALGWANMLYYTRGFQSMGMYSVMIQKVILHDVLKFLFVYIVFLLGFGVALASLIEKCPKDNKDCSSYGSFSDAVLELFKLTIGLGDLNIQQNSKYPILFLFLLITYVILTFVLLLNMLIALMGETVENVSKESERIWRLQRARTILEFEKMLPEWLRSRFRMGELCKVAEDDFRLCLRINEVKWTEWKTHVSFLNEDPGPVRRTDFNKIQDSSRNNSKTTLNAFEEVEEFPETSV
Assay: Screening for TRPV3 antagonist using the 45Calcium uptake assay (inhibition of 2-APB induced cellular uptake of radioactive calcium)
Assay type: cell-based
Details: for inhibition at 1 µM / Percentage inhibition at 1.0 μM: 1.0 μM test compound; for inhibition at 1 µM: read-out: Percentage inhibition at 1.0 μM; for inhibition at 10 µM: read-out: Percentage inhibition at 10.0 μM; for IC50: class symbols
Procedure, shortened: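 CHO cells stably expressing human TRPV3, preincubated 10 min with test compound, then 2-APB (500 μM final) plus 5 μCi/ml 45Ca2+ for 4 min in DMEM/F-12 with 1.8 mM CaCl2; 0.5% DMSO final. Lysate radioactivity by scintillation counting. IC50 by nonlinear regression of % maximal response; % inhibition at 1.0 and 10.0 μM.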

[1] = human TRPV3 expressing CHO cells, 2-APB 500 μM
[2] = 10.0 μM test compound, human TRPV3 expressing CHO cells, 2-APB 500 μM

Compound	inhibition at 1 µM [1]	Percentage inhibition at 10.0 μM	Percentage inhibition at 1.0 μM [1]	inhibition at 10 µM [2]	IC50 [1]	Percentage inhibition at 10.0 μM [2]
COc1cccc(/C=C/c2nc3sc(Cl)cn3c(=O)c2-c2ccc(N(C)C)cc2)c1OCC(C)(C)C [Example 79, 2-Chloro-6-[4-(dimethylamino)phenyl]-7-[(E)-2-(2-(2,2-dimethylpropoxy)-3-methoxy-phenyl)vinyl]-5H-[1,3]thiazolo[3,2-a]pyrimidin-5-one]	57.9%	–	–	–	–	–
COc1cccc(/C=C/c2nc3sccn3c(=O)c2-c2ccc(C#N)cc2)c1OCc1ccccn1 [Example 21]	–	11.60%	14.88%	–	–	–
COc1cccc(/C=C/c2nc3sccn3c(=O)c2-c2ccc(OC(F)(F)F)cc2)c1OCC1CC1 [Example 58, 7-{(E)-2-[2-(Cyclopropylmethoxy)-3-methoxyphenyl}-1-ethenyl]-6-(4-trifluoromethoxyphenyl)-5H-[1,3]thiazolo[3,2-a]pyrimidin-5-one]	92.8%	–	–	95.9%	< 250 nM	–
COc1cccc(/C=C/c2nc3sc4ccccc4n3c(=O)c2-c2ccc(C#N)cc2)c1OCCCC#N [Example 83, 4-(2-{(E)-2-[2-(3-Cyanopropoxy)-3-methoxyphenyl}-1-ethenyl}-4-oxo-4H-benzo[4,5]-[1,3]thiazolo-[3,2]pyrimidin-3-yl)benzonitrile]	–	–	23.6%	–	–	57.1%
O=c1c(-c2ccc(C(F)(F)F)cc2)c(/C=C/c2ccccc2OCC2CC2)nc2sccn12 [Example 24]	36.3%	–	–	67.4%	–	–
COc1cccc(/C=C/c2nc3sc(Cl)cn3c(=O)c2-c2ccc(C#N)cc2)c1OCC(C)(C)C [Example 80, 4-{2-Chloro-7-[(E)-2-(2-(2,2-dimethylpropoxy)-3-methoxyphenyl)vinyl]-5-oxo-5H-[1,3]thiazolo[3,2-a]pyrimidin-6-yl}benzonitrile]	69.1%	–	–	87.7%	500 to 1000 nM	–
CCOCCOc1c(/C=C/c2nc3sc4ccccc4n3c(=O)c2-c2ccc(OC(F)(F)F)cc2)cccc1OC [Example 97, 2-{(E)-2-[(2-Ethoxyethoxy)-3-methoxyphenyl]-1-ethenyl}-3-(4-trifluoromethoxy-phenyl)-4H-benzo[4,5][1,3]thiazolo-[3,2-a]pyrimidin-4-one]	20.2%	–	–	39.3%	–	–
CCOCCOc1c(/C=C/c2nc3sccn3c(=O)c2-c2ccc(C(F)(F)F)cc2)cccc1OC [Example 32, {7-[(E)-2-(2-Ethoxyethoxy)-3-methoxy)phenyl-1-ethenyl]-6-[4-(trifluoromethyl)phenyl]-5H-[1,3]thiazolo[3,2-a]pyrimidin-5-one]	–	–	89.3%	–	250 to 500 nM	97.7%
COc1cccc(/C=C/c2nc3sccn3c(=O)c2-c2ccc(OC(F)(F)F)cc2)c1OCCCCF [Example 56, 4-7-[(E)-2-{2-(4-Fluorobutoxy)-3-methoxyphenyl}-1-ethenyl]-6-[4-(trifluoromethoxy)phenyl]-5H-[1,3]thiazolo[3,2-a]pyrimidin-5-one]	–	–	80.9%	–	250 to 500 nM	93.5%
COc1cccc(/C=C/c2nc3sccn3c(=O)c2-c2ccc(C#N)cc2)c1OCc1cccc(F)c1 [Example 20]	–	–	56.5%	–	–	79.3%
COc1cccc(/C=C/c2nc3sccn3c(=O)c2-c2ccc(C(F)(F)F)cc2)c1OC1CCCC1 [Example 35, 7-[(E)-2-(2-Cyclopentyloxy-3-methoxyphenyl)-1-ethenyl]-6-[4-(trifluoromethyl)phenyl]-5H-[1,3]thiazolo[3,2-a]pyrimidin-5-one]	29.4%	–	–	68.5%	–	–
COc1cccc(/C=C/c2nc3sccn3c(=O)c2-c2ccc(C(F)(F)F)cc2)c1OCc1ccccn1 [Example 36]	–	–	11.2%	–	–	0.0%
COc1cccc(/C=C/c2nc3sccn3c(=O)c2-c2ccc(OCC3CC3)cc2)c1OCC1CC1 [Example 47, 7-[(E)-2-(2-Cyclopropylmethoxy-3-methoxyphenyl)-1-ethenyl]-6-(4-cyclopropylmethoxyphenyl]-5H-[1,3]thiazolo[3,2-a]pyrimidin-5-one]	43.7%	–	–	69.2%	–	–
COCCOc1c(/C=C/c2nc3sc4ccccc4n3c(=O)c2-c2ccc(C#N)cc2)cccc1OC [Example 84, 4-(2-{(E)-2-[3-Methoxy-2-(methoxyethoxy)phenyl}-1-ethenyl}-4-oxo-4H-benzo[4,5]-[1,3]thiazolo-[3,2]pyrimidin-3-yl)benzonitrile]	83.8%	–	–	93.7%	250 to 500 nM	–
COc1cccc(/C=C/c2nc3sccn3c(=O)c2-c2ccc(C(F)(F)F)cc2)c1OCC1CCC1 [Example 34, 7-[(E)-2-(2-Cyclobutylmethoxy-3-methoxyphenyl)-1-ethenyl]-6-[4-(trifluoromethyl)phenyl]-5H-[1,3]thiazolo[3,2-a]pyrimidin-5-one]	43.1%	–	–	78.4%	–	–
COc1cccc(/C=C/c2nc3sc4ccccc4n3c(=O)c2-c2ccc(C#N)cc2)c1OCC1CC1 [Example 86]	–	–	45.5%	–	–	75.6%
COc1cccc(/C=C/c2nc3sc(C)c(C)n3c(=O)c2-c2ccc(OC(F)(F)F)cc2)c1OCC1CC1 [Example 77, 7-[(E)-2-(2-Cyclopropylmethoxy-3-methoxyphenyl)-1-ethenyl]-2,3-dimethyl-6-[4-(trifluoromethoxy)phenyl]-5H-[1,3]thiazolo[3,2-a]pyrimidin-5-one]	24.7%	–	–	44%	–	–
O=c1c(-c2ccc(OC(F)(F)F)cc2)c(/C=C/c2cccc(OC(F)F)c2OCC2CC2)nc2sccn12 [Example 63, 7-{(E)-2-[2-(Cyclopropylmethoxy)-3-difluoromethoxyphenyl]-1-ethenyl}-6-(4-trifluoromethoxyphenyl)-5H-[1,3]thiazolo[3,2-a]pyrimidin-5-one]	81.4%	–	–	91.8%	< 250 nM	–
COc1cccc(/C=C/c2nc3sccn3c(=O)c2-c2ccc(OCC(F)(F)F)cc2)c1OCC1CC1 [Example 45, 7-[(E)-2-(2-Cyclopropylmethoxy-3-methoxyphenyl)-1-ethenyl]-6-(4-(2,2,2-trifluoroethoxy)phenyl]-5H-[1,3]thiazolo[3,2-a]pyrimidin-5-one]	30.7%	–	–	77.5%	–	–
COc1cccc(/C=C/c2nc3sccn3c(=O)c2-c2ccccc2)c1OCC1CC1 [Example 2, 7-{(E)-2-[2-(Cyclopropylmethoxy)-3-methoxyphenyl]vinyl}-6-phenyl-5H-[1,3]thiazolo[3,2-a]pyrimidin-5-one]	10.4%	–	–	73.1%	1000 to 10000 nM	–
COc1cccc(/C=C/c2nc3sc(Cl)cn3c(=O)c2-c2ccc(OC(F)(F)F)cc2)c1OCC(C)(C)C [Example 78, 2-Chloro-7-[(E)-2-(2-(2,2-dimethylpropoxy)-3-methoxyphenyl)vinyl]-6-[4-(trifluoromethoxy)phenyl]-5H-[1,3]thiazolo[3,2-a]pyrimidin-5-one]	27.1%	–	–	47.5%	–	–
COc1cccc(/C=C/c2nc3sccn3c(=O)c2-c2ccc(OC(F)(F)F)cc2)c1OCCC(C)C [Example 50, 7-[(E)-2-{2-Isopentyloxy-3-methoxyphenyl}-1-ethenyl]-6-[4-(trifluoromethoxy)phenyl]-5H-[1,3]thiazolo[3,2-a]pyrimidin-5-one]	81.9%	–	–	89.8%	< 250 nM	–
COc1cccc(/C=C/c2nc3sccn3c(=O)c2-c2ccc(OC(F)F)cc2)c1OCC1CC1 [Example 48, 7-[(E)-2-(2-Cyclopropylmethoxy-3-methoxyphenyl)-1-ethenyl]-6-(4-difluoromethoxyphenyl]-5H-[1,3]thiazolo[3,2-a]pyrimidin-5-one]	80%	–	–	95.1%	< 250 nM	–
CCCCOc1c(/C=C/c2nc3sccn3c(=O)c2-c2ccc(C#N)cc2)cccc1OC [Example 9, 4-{7-[(E)-2-(2-Butoxy-3-methoxyphenyl)-1-ethenyl]-5-oxo-5H-[1,3]thiazolo[3,2-a]pyrimidin-6-yl}benzonitrile]	71.6%	–	–	91.9%	500 to 1000 nM	–
